Measured values reported in patent publication US10548897B2, “KSR antagonists” (Icahn School of Medicine at Mount Sinai, priority 2015, dated 2020).

Key:
[1] = biological target: KSR2 (purified hKSR2-rMEK1 complex) (Homo sapiens (Human), UniProt Q6VAB6); assay: ATP-biotin probe labeling and inhibitor competition (KSR2 band); format: binding; settings: ATPbiotin probe labeling competition; 0.1 μM KSR2:MEK1; 27 nM to 20 μM compound; triplicate; read-out: KSR2 IC50
From the text: Human KSR2 (residues 634-950) and rabbit MEK1 (residues 1 to 393) were codon optimized for insect cell expression by DNA 2.0. Inserts were expressed with TEV cleavable 6×-His tags from the pFastBac Dual expression vector. Bacmids were used to transfect adherent SF21 cells and viruses were subsequently titred to high levels through serial infections of SF21 cells. […] Briefly, following infections, cells were harvested, lysed, and affinity purified using Co2+ sepharose resin (GoldBio). […] Dialysis retentate was diluted 3 fold and then applied to a Resourse S ion exchange column. […] One-to-one hKSR2-MEK1 complexes were captured in late fractions from an increasing salt gradient. Complexes were later applied to a 120 mL Superdex 200 gel filtration column and finally concentrated to approximately 10 mg/mL before flash freezing for biochemical assays.
The ATP-biotin assay was performed in buffer containing 25 mM Tris pH 7.5, 150 mM NaCl, 10 mM MgCl2, and 2% DMSO. […] In particular, hKSR2-rMEK1 was pre-incubated with 20 μM of the indicated compounds for 15 minutes. Then, ATP-biotin (Pierce Cat. #88310) was added to a final concentration of 2 μM. Reactions were incubated at room temperature for 5 minutes before being stopped by the addition of 6×SDS loading dye. […] Enhanced chemiluminescence signals corresponding to labeling on KSR2 and MEK1 were visualized and quantified using the Biodoc system (Biorad). Relative signals of Streptavidin HRP on bands corresponding to KSR2 and MEK1 in the presence of compounds relative to DMSO controls were used to determine ‘Percent Inhibition of ATP Probe Labeling’.
For the ATP^biotin labeling competition screen, samples were applied to a 4-20% Tris-HCl gel, separated, and then transferred to a nitrocellulose membrane. The membrane was blocked with 5% bovine serum albumin diluted in TBS-T for 30 minutes and subsequently probed with the Pierce™ High Sensitivity Streptavidin-HRP. After several washes, the membranes were visualized using enhanced chemiluminescence on a Biodoc (Biorad).

[2] = test system: KSR-stimulated MEK and ERK phosphorylation; assay: Cell-based reconstitution system monitoring KSR-driven MAPK signaling
From the text: To assess the biological function of lead compounds as Ras-MAPK pathway antagonists, a simplified cell-based reconstitution system was developed to directly monitor KSR-driven MAPK signaling. […] Based on similarity in phenotype and direct-binding activity, Compound 21 was identified as a small molecule mimic of KSR alleles that suppress oncogenic Ras mutations.

[3] = biological target: KSR2:MEK1 phosphorylation by B-RAF (Homo sapiens (Human), UniProt Q6VAB6); assay: RAF phosphorylation assay, KSR2:MEK1 substrate; format: biochemical; settings: 10 μM compound, 100 μM ATP, pMEK Ser218/Ser222
KSR2:MEK1 phosphorylation by B-RAF, sequence (Q6VAB6 634-950): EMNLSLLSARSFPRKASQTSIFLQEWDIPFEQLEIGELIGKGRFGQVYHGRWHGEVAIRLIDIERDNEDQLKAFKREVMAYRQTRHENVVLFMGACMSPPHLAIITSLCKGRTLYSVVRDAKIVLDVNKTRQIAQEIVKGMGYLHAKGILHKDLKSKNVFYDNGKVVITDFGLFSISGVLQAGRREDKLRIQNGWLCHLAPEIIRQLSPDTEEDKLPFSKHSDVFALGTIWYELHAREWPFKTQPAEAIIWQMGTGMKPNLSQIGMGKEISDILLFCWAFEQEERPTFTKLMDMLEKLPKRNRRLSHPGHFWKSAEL
KSR2:MEK1 phosphorylation by B-RAF, sequence (P29678 whole entry partner): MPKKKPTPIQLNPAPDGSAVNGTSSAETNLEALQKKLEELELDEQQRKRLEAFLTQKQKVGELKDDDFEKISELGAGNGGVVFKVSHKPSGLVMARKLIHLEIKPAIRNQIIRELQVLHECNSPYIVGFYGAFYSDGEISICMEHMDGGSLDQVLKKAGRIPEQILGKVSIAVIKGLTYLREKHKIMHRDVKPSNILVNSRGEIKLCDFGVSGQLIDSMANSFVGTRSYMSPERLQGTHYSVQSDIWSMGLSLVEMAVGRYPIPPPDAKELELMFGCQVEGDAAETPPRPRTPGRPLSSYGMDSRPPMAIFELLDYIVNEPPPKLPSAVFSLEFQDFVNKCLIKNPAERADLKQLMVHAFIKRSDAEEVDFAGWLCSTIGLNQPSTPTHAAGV
Procedure: (§1) FIGS. 9A-9C show phosphorylation of MEK1, KSR2:MEK1, and KSR2^A690F:MEK1 by B-RAF over time in the presence of Compound 21. Relative pMEK was determined by quantification of band intensities from western blots using Image Lab Software 4.1.
(§2) In particular, a variant of B-RAF was identified that could be expressed in high yield from E. Coli and which also retained near wild-type levels of kinase activity towards MEK1. For in vitro kinase assays, indicated concentrations of B-RAF and 1 μM KSR2-MEK1 or 1 μM MEK1 proteins were pre-incubated with 10 μM of indicated compounds for 15 minutes in buffer containing 25 mM Tris pH 7.5, 150 mM NaCl, 10 mM MgCl2, and 2% DMSO. Kinase reactions were initiated by the addition of 100 μM ATP and halted at the indicated times by the addition of 6×SDS loading dye. Samples were examined by western blotting as described for the ATP-biotin experiments and by probing overnight with a MEK1/2 Ser218-Ser222 phospho-specific antibody (Cell signaling). Membranes were visualized using enhanced chemiluminescence on a Biodoc (Biorad) for quantification purposes.

[4] = test system: MEK1 phosphorylation by B-RAF; assay: RAF phosphorylation assay, MEK1 alone (KSR absent); format: biochemical; settings: 10 μM compound, free MEK1
Procedure: as §1, §2

[5] = test system: RAF; assay: Inhibitory activity against purified RAF; format: biochemical
[6] = test system: MEK; assay: Inhibitory activity against purified MEK; format: biochemical
[7] = test system: ERK; assay: Inhibitory activity against purified ERK; format: biochemical
[8] = test system: HEK293 cells; assay: FBS-induced ERK activation in serum-starved HEK293 cells; format: cell-based; settings: 2 h pre-treatment, 5% FBS induction, compared with KSR1 siRNA
Procedure: FIGS. 10A-10B show KSR1 knockdown and Compound 21 treatment similarly block FBS-induced ERK activation. In FIG. 10A, HEK293 cells were serum starved for 24 hours and simultaneously treated with two independent siRNAs against KSR1. siNTC was used as a scrambled control. After induction with 5% FBS, cells were harvested at […]. In FIG. 10B, HEK293 cells were similarly serum starved and pre-treated with Compound 21 for 2 h before induction. The cells were then induced with FBS as in FIG. 10A.

[9] = test system: MAPK pathway readouts (pERK, pMEK, pRSK) in A375 and HCT-116; assay: Western blot of MAPK pathway readouts, treatment with trametinib combinations; format: cell-based
[10] = test system: ERK phosphorylation in HCT-116 cell line; assay: ERK phosphorylation dose response to trametinib, HCT-116; format: cell-based; settings: HCT-116 (Ras-mutant)

KSR2 (purified hKSR2-rMEK1 complex), sequence (Q6VAB6 634-950): as the sequence (Q6VAB6 634-950) above
KSR2 (purified hKSR2-rMEK1 complex), sequence (P29678 whole entry partner, the tested form may be a part): as the sequence (P29678 whole entry partner) above

COc1cc2ncnc(Nc3ccc(Oc4ccccc4)cc3C)c2cc1OC [Compound 21, 6,7-Dimethoxy-N-(2-methyl-4-phenoxyphenyl)quinazolin-4-amine 2,2,2-trifluoroacetate]
IC50 [1]: 120 ± 23 nM
suppression of KSR-stimulated MEK and ERK phosphorylation ([2]; KSR expression-dependent MAPK signaling): suppressed
suppression of KSR-stimulated MAPK signaling with active site mutant KSR^A690F ([2]; KSR^A690F mutant): greatly diminished the activity
KSR-stimulated MEK phosphorylation by RAF [3]: significantly reduced
MEK phosphorylation by RAF, KSR absent [4]: essentially inactive
inhibitory activity against purified RAF [5]: lacked detectable inhibitory activity
inhibitory activity against purified MEK [6]: lacked detectable inhibitory activity
inhibitory activity against purified ERK [7]: lacked detectable inhibitory activity
effect on FBS-induced ERK activation [8]: mimic the effects of RNAi based knockdown of KSR1
MAPK pathway inhibition (pERK, pMEK, pRSK), single agent ([9]; alone, compared with Compound 21 + trametinib co-treatment): did not display the same pathway inhibition
MAPK pathway inhibition (pERK, pMEK, pRSK) in combination with trametinib ([9]; combined with trametinib, A375 and HCT-116): reduction in MAPK pathway readouts
enhancement in the IC90 of trametinib on ERK phosphorylation [10]: 2 fold
